Results published in patent US20100004222A1, “Amide Derivatives as Ion-Channel Ligands and Pharmaceutical Compositions and Methods of Using the Same” (Renovis, Inc., priority 2006, published 2010).
Where two headings read alike, the source gives them in different places.

Assays:
[1] = Pharmacokinetic evaluation following intravenous and oral administration in rats; type: in vivo; settings: male, Sprague-Dawley, plasma, rat; for bioavailability: AUCinf (PO)/AUCinf (IV), dose normalized, PO 5 mg/kg, read-out: Oral Bioavailability F (%); for clearance: non-compartmental analysis, read-out: In vivo Clearance (converted)
Protocol: Male Sprague-Dawley rats are acclimatized for at least 24 hours prior to experiment initiation. During acclimation period, all animals receive food and water ad libitum. However, food but not water is removed from the animal's cages at least 12 hours before initiation of the experiment. During the first 3 hours of experimentation, the animals receive only water ad libitum. At least three animal each are tested for intravenous and oral dosage. For intravenous formulation, compounds were dissolved (0.25 to 1 mg/mL) in a mixture of 3% dimethyl sulfoxide, 40% PEG 400 and the rest percentage of 40% Captisol in water (w/v). For oral formulation, compounds of this invention are dissolved (2 mg/mL) in a mixture of 5% of 10% Tween 80 in water (v/v) and 95% of 0.5% methyl cellulose in water (w/v). The animals are weighed before dosing. The determined body weight is used to calculate the dose volume for each animal.
Dose volume(mL/kg)=1 mg/kg/formulation concentration(mg/mL)
In instances where the formulation concentrations were less than 0.5 mg/mL, the dosing volume is about 2 mL/kg. PO rats are typically dosed through oral gavage at 2.5 mL/kg to achieve a dose level of 5 mg/kg. For IV dosing, blood samples are collected (using a pre-heparinized syringe) via the jugular vein catheter at 2, 5, 15, 30, 60, 120, 180, 300, 480, and 1440 minutes post dosing. For PO dosing, blood samples are collected (using a pre-heparinized syringe) via the jugular vein catheter before dosing and at 5, 15, 30, 60, 120, 180, 300, 480, and 1440 minutes post dosing. About 250 uL of blood is obtained at each time point from the animal. Equal volumes of 0.9% normal saline are replaced to prevent dehydration. The whole blood samples are maintained on ice until centrifugation. Blood samples are then centrifuged at 14,000 rpm for 10 minutes at 4° C. and the upper plasma layer transferred into a clean vial and stored at −80° C. The resulting plasma samples are then analyzed by liquid chromatography-tandem mass spectrometry. Following the measurement of plasma samples and dosing solutions, plasma concentration-time curve is plotted. Plasma exposure is calculated as the area under the concentration-time curve extrapolated to time infinite (AUCinf). The AUCinf is averaged and the oral bioavailability (% F) for individual animal is calculated as:
AUCinf (PO)/AUCinf (IV), normalized to their respective dose levels. The % F is reported as the mean % F of all animals dosed orally with the compound of the invention at the specified level (Table 6).
In vivo clearance in the rat was calculated by conducting a non-compartmental analysis of the pharmacokinetic profile using WinNonlin software.

[2] = Half-life in human liver microsomes (HLM); type: in vitro ADME; settings: pH 7.4, 1 μM compound, 0.78 mg/mL HLM, 37° C.
Protocol: Test compounds (1 μM) are incubated with 3.3 mM MgCl2 and 0.78 mg/mL HLM (HL101) in 100 mM potassium phosphate buffer (pH 7.4) at 37° C. on the 96-deep well plate. The reaction mixture is split into two groups, a non-P450 and a P450 group. NADPH is only added to the reaction mixture of the P450 group. An aliquot of samples of P450 group is collected at 0, 10, 30, and 60 min time point, where 0 min time point indicated the time when NADPH is added into the reaction mixture of P450 group. An aliquot of samples of non-P450 group is collected at −10 and 65 min time point. Collected aliquots are extracted with acetonitrile solution containing an internal standard. The precipitated protein is spun down in centrifuge (2000 rpm, 15 min). The compound concentration in supernatant is measured by LC/MS/MS system.
The half-life value is obtained by plotting the natural logarithm of the peak area ratio of compounds/internal standard versus time. The slope of the line of best fit through the points yields the rate of metabolism (k). This is converted to a half-life value using following equations: […]

VR1 [3] = target: T1, VR1 (Homo sapiens, UniProt Q8NER1); assay: Acid stimulation assay (FDSS 6000); type: cell-based; settings: final assay buffer pH5.8, 15 min pre-incubation
Protocol: The Acid-induced changes in the intracellular calcium concentration were monitored using FDSS 6000 (Hamamatsu Photonics, Japan), a fluorometric imaging system. The cell suspension in resting buffer (HBSS supplemented with 10 mM HEPES, pH 7.4) was pre-incubated with varying concentrations of the test compounds or resting buffer (buffer control) for 15 minutes at room temperature under dark conditions. The cells were automatically added the stimulating solution (HBSS supplemented with MES, final assay buffer pH5.8) by the FDSS 6000.
Target sequence in this assay (Q8NER1 whole entry, species assumed): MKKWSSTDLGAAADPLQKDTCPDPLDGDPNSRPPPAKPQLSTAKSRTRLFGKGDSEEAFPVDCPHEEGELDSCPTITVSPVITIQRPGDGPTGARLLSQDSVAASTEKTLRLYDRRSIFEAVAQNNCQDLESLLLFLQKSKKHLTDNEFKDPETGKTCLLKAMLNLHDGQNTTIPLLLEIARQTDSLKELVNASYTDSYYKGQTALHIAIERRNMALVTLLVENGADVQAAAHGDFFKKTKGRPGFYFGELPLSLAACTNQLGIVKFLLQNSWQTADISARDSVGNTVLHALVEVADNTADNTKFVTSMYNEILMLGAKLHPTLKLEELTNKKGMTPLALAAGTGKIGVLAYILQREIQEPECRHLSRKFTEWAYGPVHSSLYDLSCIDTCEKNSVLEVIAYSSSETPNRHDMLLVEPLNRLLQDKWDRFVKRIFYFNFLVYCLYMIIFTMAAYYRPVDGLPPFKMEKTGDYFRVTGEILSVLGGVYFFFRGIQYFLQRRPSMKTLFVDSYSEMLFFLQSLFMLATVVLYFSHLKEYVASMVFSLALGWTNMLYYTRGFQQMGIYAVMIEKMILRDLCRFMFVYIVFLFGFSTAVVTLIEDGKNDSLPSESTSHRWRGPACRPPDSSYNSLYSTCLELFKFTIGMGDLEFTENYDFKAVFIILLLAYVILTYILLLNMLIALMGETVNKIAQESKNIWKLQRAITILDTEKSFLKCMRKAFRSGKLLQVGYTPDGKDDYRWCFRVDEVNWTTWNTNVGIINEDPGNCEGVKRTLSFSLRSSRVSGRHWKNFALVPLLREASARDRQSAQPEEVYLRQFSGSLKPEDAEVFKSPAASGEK

VR1 [4] = target: T1, VR1; assay: Calcium uptake assay, low pH (proton) agonist; type: cell-based; parameters: expressed in transfected cells; host or cells: T-REx HEK 293 (Invitrogen), pcDNA5/TO vector
Target sequence in this assay (Q8NER1 whole entry): as the sequence (Q8NER1 whole entry, species assumed) above

[5] = HEK293, 0.3 μM compound, low pH (protons) as agonist, HEK 293 cells expressing hVR1, read-out: Low pH % Inhib. @ 0.3 μM

Cc1cc(/C=C/C(F)(F)F)ccc1C(=O)Nc1cnc2cccnc2c1 [Compound 318, (E)-2-methyl-N-(1,5-naphthyridin-3-yl)-4-(3,3,3-trifluoroprop-1-enyl)benzamide] showed a bioavailability [1] of 59%, a clearance [1] of 1.33 mL/min/kg and a half-life at 1 μM [2] of 2.96 h. For the same compound, the IC50 (VR1 [3]) was 3 nM and the inhibition at 0.3 µM (VR1 [4]; [5]) was 104%.

In the case of Cc1nc2cc(NC(=O)c3ccc(/C=C/C(F)(F)F)cc3C)cnc2s1 [Compound 412, (E)-2-methyl-N-(2-methylthiazolo[5,4-b]pyridin-6-yl)-4-(3,3,3-trifluoroprop-1-enyl)benzamide], the bioavailability [1] is reported as 11%, the clearance [1] is reported as 7.17 mL/min/kg and the half-life at 1 μM [2] is reported as 0.81 h. For the same compound, the IC50 (VR1 [3]) was 20 nM and the inhibition at 0.3 µM (VR1 [4]; [5]) was 105%.

With Cc1cc(/C=C/C(F)(F)F)ccc1C(=O)Nc1cccc2c1C[C@@H](O)CC2 (single isomer, unassigned) [Compound 313] the IC50 (VR1 [3]) was 14 nM and the inhibition at 0.3 µM (VR1 [4]; [5]) was 106%.

In the case of Cc1cc(/C=C/C(F)(F)F)ccc1C(=O)Nc1ccc2c(c1)N(S(C)(=O)=O)CC2 [Compound 401, (E)-N-(1-methanesulfonyl-2,3-dihydro-1H-indol-6-yl]-2-methyl-4-(3,3,3-trifluoroprop-1-enyl)benzamide], the IC50 (VR1 [3]) is reported as 94 nM and the inhibition at 0.3 µM (VR1 [4]; [5]) is reported as 88%.

With Cc1cc(/C=C/C(F)(F)F)ccc1C(=O)Nc1ccc2cc(C(O)CO)cnc2c1 (centres unmarked) [Compound 308, (E)-N-(3-(1,2-dihydroxyethyl)quinolin-7-yl)-2-methyl-4-(3,3,3-trifluoroprop-1-enyl)benzamide] the bioavailability [1] was 71%, the clearance [1] was 12.2 mL/min/kg and the half-life at 1 μM [2] was 1.05 h. The IC50 (VR1 [3]) was 11 nM and the inhibition at 0.3 µM (VR1 [4]; [5]) was 101%.

In the case of Cc1cc(/C=C/C(F)(F)F)ccc1C(=O)Nc1cnc2scnc2c1 [Compound 415, (E)-2-methyl-N-(thiazolo[5,4-b]pyridin-6-yl)-4-(3,3,3-trifluoroprop-1-enyl)benzamide], the bioavailability [1] is reported as 45%, the clearance [1] is reported as 0.833 mL/min/kg and the half-life at 1 μM [2] is reported as 4.82 h. It also gave an IC50 (VR1 [3]) of 8 nM and an inhibition at 0.3 µM (VR1 [4]; [5]) of 130%.

Cc1cc(/C=C/C(F)(F)F)ccc1C(=O)Nc1cnc2c(c1)CCCC2 [Compound 312] gave an IC50 (VR1 [3]) of 103 nM and an inhibition at 0.3 µM (VR1 [4]; [5]) of 97%.

With Cc1cc(/C=C/C(F)(F)F)ccc1C(=O)Nc1cccc2ccc(O)cc12 [Compound 302, (E)-N-(7-hydroxynaphthalen-1-yl)-2-methyl-4-(3,3,3-trifluoroprop-1-enyl)benzamide] the bioavailability [1] was 2%, the clearance [1] was 67.3 mL/min/kg and the half-life at 1 μM [2] was 0.61 h. It also gave an IC50 (VR1 [3]) of 1 nM.

Cc1cc(/C=C/C(F)(F)F)ccc1C(=O)Nc1ccc2c(c1)C(O)CCC2 (centres unmarked) [Compound 307, (E)-N-(8-hydroxy-5,6,7,8-tetrahydronaphthylen-2-yl)-2-methyl-4-(3,3,3-trifluoroprop-1-enyl)benzamide] gave an IC50 (VR1 [3]) of 118 nM and an inhibition at 0.3 µM (VR1 [4]; [5]) of 75%.

For Cc1cc(/C=C/C(F)(F)F)ccc1C(=O)Nc1cnc2cc(CO)cnc2c1 [Compound 317, (E)-N-(7-(Hydroxymethyl)-1,5-naphthyridin-3-yl)-2-methyl-4-(3,33-trifluoroprop-1-enyl)benzamide], the bioavailability [1] was 47%, the clearance [1] was 16.5 mL/min/kg and the half-life at 1 μM [2] was 0.62 h. It also gave an IC50 (VR1 [3]) of 11 nM and an inhibition at 0.3 µM (VR1 [4]; [5]) of 100%.

Work on Cc1cc(/C=C/C(F)(F)F)ccc1C(=O)Nc1ccc2c(c1)N(C(=O)CO)CC2 [Compound 407, (E)-N-(1-(2-hydroxyacetyl)-indolin-yl)-2-methyl-4-(3,3,3-trifluoro-Prop-1-enyl)benzamide] yielded an IC50 (VR1 [3]) of 32 nM and an inhibition at 0.3 µM (VR1 [4]; [5]) of 95%.

In the case of Cc1cc(/C=C/C(F)(F)F)ccc1C(=O)Nc1cnc2c(c1)COC(CO)C2 (centres unmarked) [Compound 310, (E)-N-(7-hydroxymethyl-7,8-dihydro-5H-pyrano[4,3-b]pyridin-3-yl)-2-methyl-4-(3,3,3-trifluoroprop-1-enyl)benzamide], the IC50 (VR1 [3]) is reported as 109 nM and the inhibition at 0.3 µM (VR1 [4]; [5]) is reported as 71%.

Work on Cc1cc(/C=C/C(F)(F)F)ccc1C(=O)Nc1cccc2c1CC(O)CC2 (racemic) [Compound 309, (E)-N-(7-hydroxy-5,6,7,8-tetrahydronaphthylen-1-yl)-2-methyl-4-(3,3,3-trifluoroprop-1-enyl)benzamide] yielded a bioavailability [1] of 29%, a clearance [1] of 7.68 mL/min/kg and a half-life at 1 μM [2] of 2.25 h. For the same compound, the IC50 (VR1 [3]) was 2 nM and the inhibition at 0.3 µM (VR1 [4]; [5]) was 107%.

CC(=O)n1ccc2cc(NC(=O)c3ccc(/C=C/C(F)(F)F)cc3C)cnc21 [Compound 408, (E)-N-(1-acetyl-1H-pyrrolo[2,3-b]pyridin-5-yl]-2-methyl-4-(3,3,3-trifluoroprop-1-enyl)benzamide] showed an IC50 (VR1 [3]) of 61 nM and an inhibition at 0.3 µM (VR1 [4]; HEK293, read-out: Low pH % Inhib. @ 0.3 μM) of 91%.

With Cc1cc(/C=C/C(F)(F)F)ccc1C(=O)Nc1ccc2sc(C(C)(C)O)nc2c1 [Compound 409, (E)-N-(2-(2-hydroxypropan-2-yl)benzo[d]thiazol-5-yl)-2-methyl-4-(3,3,3-trifluoroprop-1-enyl)benzamide] the IC50 (VR1 [3]) was 59 nM and the inhibition at 0.3 µM (VR1 [4]; [5]) was 103%.

Work on Cc1cc(/C=C/C(F)(F)F)ccc1C(=O)Nc1ccc2oc(CO)nc2c1 [Compound 411, (E)-N-(2-(hydroxymethyl)benzo[d]oxazol-5-yl)-2-methyl-(3,3,3-trifluoroprop-1-enyl)benzamide] yielded an IC50 (VR1 [3]) of 28 nM and an inhibition at 0.3 µM (VR1 [4]; [5]) of 102%.

Compound CCC(=O)N1CCc2ccc(NC(=O)c3ccc(/C=C/C(F)(F)F)cc3C)cc21 [Compound 406, (E)-2-methyl-N-(1-propionylindoline-6-yl]-4-(3,3,3-trifluoro-prop-1-enyl)benzamide] has an IC50 (VR1 [3]) of 323 nM and an inhibition at 0.3 µM (VR1 [4]; [5]) of 45%.

With Cc1cc(/C=C/C(F)(F)F)ccc1C(=O)Nc1cnc2sc(CO)nc2c1 [Compound 413, (E)-N-(2-(hydroxymethyl)thiazolo[5,4-b]pyridin-6-yl)-2-methyl-4-(3,3,3-trifluoroprop-1-enyl)benzamide] the bioavailability [1] was over 100%, the clearance [1] was 3.83 mL/min/kg and the half-life at 1 μM [2] was 3.22 h. For the same compound, the IC50 (VR1 [3]) was 4 nM and the inhibition at 0.3 µM (VR1 [4]; [5]) was 110%.

CC(=O)c1nc2cc(NC(=O)c3ccc(/C=C/C(F)(F)F)cc3C)ccc2s1 [Compound 410, (E)-N-(2-acetylbenzo[d]thiazol-5-yl)-2-methyl-4-(3,3,3-trifluoroprop-1-enyl)benzamide] gave an IC50 (VR1 [3]) of 707 nM and an inhibition at 0.3 µM (VR1 [4]; [5]) of 12%.

Cc1cc(/C=C/C(F)(F)F)ccc1C(=O)Nc1ccc2sc(C(C)O)nc2c1 (centres unmarked) [Compound 403] showed an IC50 (VR1 [3]) of 147 nM and an inhibition at 0.3 µM (VR1 [4]; [5]) of 81%.

In the case of Cc1cc(/C=C/C(F)(F)F)ccc1C(=O)Nc1ccc2nccnc2c1 [Compound 325, (E)-2-methyl-N-(Quinoxalin-6-yl)-4-(3,3,3-trifluoroprop-1-enyl)benzamide], the IC50 (VR1 [3]) is reported as 147 nM and the inhibition at 0.3 µM (VR1 [4]; [5]) is reported as 72.3%.
